Results from ChEMBL document CHEMBL4049411, “Rational Design, Synthesis, and Biological Evaluation of Heterocyclic Quinolones Targeting the Respiratory Chain of Mycobacterium tuberculosis” (J Med Chem, 2017).
In brackets after ≈: the same amount, converted by molar mass.

How the values were obtained:
[1] = (§1) Inhibition of replicating Mycobacterium tuberculosis H37Rv NDH assessed as cell growth inhibition after 7 days by MABA method; conditions: 168 h
[2] = Aqueous solubility of compound; assay type: physicochemical; conditions: buffer
[3] = Intrinsic clearance in rat hepatocytes assessed per million cells; assay type: ADME, cell-based, Hepatocyte; conditions: read-out: CLH
[4] = Lipophilicity, logD of compound at pH 7.4; conditions: buffer
[5] = Protein binding in human plasma at 1 uM after 18 hrs by equilibrium dialysis; assay type: ADME, cell-free; conditions: read-out: PPB (converted)
[6] = Intrinsic clearance in human microsomes; assay type: ADME, Microsome; conditions: read-out: CLH
HepG2 = experiment: Cytotoxicity against human HepG2 cells after 24 hrs in presence of glucose by MTT assay; assay type: cell-based; conditions: hepg2, 24 h
[7] = Metabolic stability in mouse liver microsomes assessed as half life for metabolic turnover at 0.1 to 10 uM preincubated for 60 mins in presence of NADPH measured up to 60 mins by mass spectroscopic analysis; assay type: ADME, microsome
[8] = Metabolic stability in rat liver microsomes assessed as half life for metabolic turnover at 0.1 to 10 uM preincubated for 60 mins in presence of NADPH measured up to 60 mins by mass spectroscopic analysis; assay type: ADME, microsome
[9] = Metabolic stability in human liver microsomes assessed as half life for metabolic turnover at 0.1 to 10 uM preincubated for 60 mins in presence of NADPH measured up to 60 mins by mass spectroscopic analysis; assay type: ADME, microsome
[10] = system: Mycobacterium tuberculosis H37Rv; experiment: as §1

Structure (SMILES): Cc1c(-c2ccc(N3CCN(C)CC3)cc2)[nH]c2cc(F)cc(F)c2c1=O
- IC50 [1]: > 10 µM

Structure (SMILES): Cc1c(-c2ccc(-n3cccc3)c(Cl)c2)[nH]c2cc(F)cc(F)c2c1=O
- IC50 [1]: > 10 µM

Structure (SMILES): Cc1c(-c2ccc(N3CCC(F)CC3)cc2)[nH]c2ccccc2c1=O
- IC50 [1]: > 10 µM

Structure (SMILES): Cc1c(-c2ccc(N3CCC[C@@H]3C(=O)N(C)C)cc2)[nH]c2cc(F)cc(F)c2c1=O
- IC50 [1]: > 10 µM

Structure (SMILES): COc1ccc2c(=O)c(Cl)c(-c3ccc(N4CCCCC4)cc3)[nH]c2c1
- solubility [2]: 0.5 µM (≈ 0.184 µg/mL)
- hepatocyte CLint [3]: 48.9 µL/min/1e6 cells
- logD [4]: 3.6
- fraction unbound at 18 h, 1 µM [5]: 0.012
- microsomal CLint [6]: > 300 µL/min/mg
- IC50 [1]: 2.82 µM

Structure (SMILES): Cc1c(-c2ccc(-n3cccc3C#N)cc2)[nH]c2cc(F)cc(F)c2c1=O
- IC50 [1]: > 10 µM

Structure (SMILES): Cc1c(-c2ccc(N3CCC(C(F)(F)F)CC3)cc2)[nH]c2cc(F)cc(F)c2c1=O
- IC50 [1]: > 10 µM

Structure (SMILES): COc1ccc2c(=O)c(C)c(-c3ccc(N4CCC(F)CC4)cc3)[nH]c2c1
- IC50 [1]: 1.32 µM

Structure (SMILES): Cc1c(-c2ccc(N3CCCCC3)cc2)[nH]c2cc(F)ccc2c1=O
- IC50 [1]: > 10 µM

Structure (SMILES): COc1ccc2c(=O)c(C)c(-c3ccc(-n4cc(F)c(F)c4)cc3)[nH]c2c1
- IC50 [1]: > 10 µM

Structure (SMILES): Cc1c(-c2ccc(N3CC[C@@H]3C(=O)N(C)C)cc2)[nH]c2cc(F)cc(F)c2c1=O
- IC50 [1]: > 10 µM

Structure (SMILES): Cc1c(-c2ccc(-n3ccc4ccccc43)cc2)[nH]c2cc(F)cc(F)c2c1=O
- IC50 [1]: > 10 µM

Structure (SMILES): Cc1c(-c2ccc(N3CCC(C)(O)C3)cc2)[nH]c2cc(F)cc(F)c2c1=O (configuration not stated)
- IC50 [1]: > 10 µM

Structure (SMILES): O=c1c(Br)c(-c2ccc(N3CCC(F)CC3)cc2)[nH]c2ccccc12
- IC50 [1]: > 10 µM

Structure (SMILES): Cc1c(-c2ccc(N3CC[C@@H](F)C3)cc2)[nH]c2cc(F)cc(F)c2c1=O
- solubility [2]: 0.9 µM (≈ 0.323 µg/mL)
- hepatocyte CLint [3]: 118 µL/min/1e6 cells
- Activity (HepG2): 150.6 µM
- logD [4]: 3.8
- fraction unbound at 18 h, 1 µM [5]: 0.009
- half-life at up to 10 µM [7]: 4.4 min
- half-life at up to 10 µM [8]: 10.6 min
- microsomal CLint [6]: 175 µL/min/mg
- half-life at up to 10 µM [9]: 10.2 min
- IC50 [1]: 0.23 to 0.231 µM
- IC90 [10]: 0.5 µM

Structure (SMILES): Cc1c(-c2ccc(N3CCC(Cc4ccccc4)CC3)cc2)[nH]c2ccccc2c1=O
- IC50 [1]: > 10 µM

Structure (SMILES): COc1ccc2c(=O)c(C)c(-c3ccc(N4CCN(Cc5ccccc5)CC4)cc3)[nH]c2c1
- IC50 [1]: > 10 µM

Structure (SMILES): COc1cc2[nH]c(-c3ccc(N4CCCCC4)cc3)c(C)c(=O)c2cc1F
- solubility [2]: 2 µM (≈ 0.733 µg/mL)
- hepatocyte CLint [3]: 231 µL/min/1e6 cells
- logD [4]: 3.9
- fraction unbound at 18 h, 1 µM [5]: 0.012
- microsomal CLint [6]: > 300 µL/min/mg
- IC50 [1]: 0.52 µM

Structure (SMILES): Cc1c(-c2ccc(N3CCN(Cc4ccccc4)CC3)cc2)[nH]c2ccc(F)cc2c1=O
- IC50 [1]: > 10 µM

Structure (SMILES): Cc1c(-c2ccc(N3CCC4(CC3)CC4)cc2)[nH]c2cc(F)cc(F)c2c1=O
- IC50 [1]: > 10 µM

Structure (SMILES): Cc1c(-c2ccc(N3CCCCC3)cc2)[nH]c2ccc(F)cc2c1=O
- IC50 [1]: 1.83 µM

Structure (SMILES): COc1cc(OC)c2c(=O)c(C)c(-c3ccc(N4CCCCC4)cc3)[nH]c2c1
- IC50 [1]: > 10 µM

Structure (SMILES): COc1ccc2c(=O)c(Cl)c(-c3ccc(N4CCC(F)CC4)cc3)[nH]c2c1
- IC50 [1]: > 10 µM

Structure (SMILES): Cc1c(-c2ccc(N3CCC[C@@H]3C(=O)N3CCC(F)CC3)cc2)[nH]c2cc(F)cc(F)c2c1=O
- IC50 [1]: > 10 µM

Structure (SMILES): Cc1c(-c2ccc(N3CCCCC3)cc2)[nH]c2cc(F)cc(F)c2c1=O
- Activity (HepG2): > 100 µM
- half-life at up to 10 µM [7]: 8.27 min
- half-life at up to 10 µM [8]: 8.3 min
- half-life at up to 10 µM [9]: 7.31 min
- IC50 [1]: 0.27 µM
- IC90 [10]: 0.78 µM

Structure (SMILES): COc1ccc2c(=O)cc(-c3ccc(N4CCC(F)CC4)cc3)[nH]c2c1
- IC50 [1]: > 10 µM

Structure (SMILES): Cc1c(-c2ccc(N3CCN(Cc4ccccc4)CC3)cc2)[nH]c2ccccc2c1=O
- IC50 [1]: 5.74 µM

Structure (SMILES): Cc1c(-c2ccc(N3CCC[C@H]3CO)cc2)[nH]c2cc(F)cc(F)c2c1=O
- solubility [2]: 4 µM (≈ 1.48 µg/mL)
- hepatocyte CLint [3]: 36.5 µL/min/1e6 cells
- logD [4]: > 3.4
- fraction unbound at 18 h, 1 µM [5]: 0.045
- microsomal CLint [6]: > 300 µL/min/mg
- IC50 [1]: 1.59 µM

Structure (SMILES): O=c1c(Cl)c(-c2ccc(N3CCCCC3)cc2)[nH]c2ccccc12
- IC50 [1]: 1.56 µM

Structure (SMILES): Cc1c(-c2ccc(N3CCC(F)CC3)cc2)[nH]c2cc(F)cc(F)c2c1=O
- Activity (HepG2): 102.2 µM
- half-life at up to 10 µM [7]: 4.4 min
- half-life at up to 10 µM [8]: 8.4 min
- half-life at up to 10 µM [9]: 5.7 min
- IC50 [1]: 0.94 to 0.95 µM
- IC90 [10]: 1.83 µM

Structure (SMILES): Cc1c(-c2ccc(N3CCCC(C)(O)C3)cc2)[nH]c2cc(F)cc(F)c2c1=O (configuration not stated)
- IC50 [1]: 5.01 µM

Structure (SMILES): Cc1c(-c2ccc(N3CCCCC3)cc2)[nH]c2cc(Cl)ccc2c1=O
- IC50 [1]: > 10 µM
